According to patent US4731451A, “N-((2-oxo-3(2H)benzothiazolyl)methyl)-2-chloroacetanilides” (Monsanto Company, priority 1980, dated 1988):

Columns and labels:
Assay type in all cases: in vivo
Velvetleaf [1] = experiment: Pre-emergent herbicidal activity (Table II); conditions: 2-3 weeks
Procedure: (§1) The pre-emergence tests are conducted as follows:
(§2) A good grade of top soil is placed in aluminum pans and compacted to a depth of three-eighths to one-half inch from the top of the pan. On the top of the soil is placed a predetermined number of seeds or vegetative propagules of various plant species. The soil required to level fill the pans after seeding or adding vegetative propagules is weighed into a pan. A known amount of the active ingredient applied in a solvent or as a wettable powder suspension and the soil are thoroughly mixed, and used as a cover layer for prepared pans. After treatment, the pans are moved into a greenhouse bench where they are watered from below as needed to give adequate moisture for germination and growth.
(§3) Approximately 2-3 weeks after seeding and treating, the plants are observed and the results recorded. The herbicidal rating is obtained by means of fixed scale based on the percent injury of each plant species. The ratings are defined as follows: […]
(§4) The plant species utilized in one set of tests, the data for which are shown in Table II, are identified by letter in accordance with the following legend: […]

Johnsongrass = experiment: Pre-emergent herbicidal activity (Table II); conditions: 2-3 weeks
Procedure: as §1, §2, §3, §4

Morningglory [2] = experiment: Pre-emergent herbicidal activity (Table II); conditions: 2-3 weeks
Procedure: as §1, §2, §3, §4

Smartweed [3] = experiment: Pre-emergent herbicidal activity (Table II); conditions: 2-3 weeks
Procedure: as §1, §2, §3, §4

Barnyardgrass [4] = experiment: Pre-emergent herbicidal activity (Table II); conditions: 2-3 weeks
Procedure: as §1, §2, §3, §4

Canada Thistle = experiment: Pre-emergent herbicidal activity (Table II); conditions: 2-3 weeks
Procedure: as §1, §2, §3, §4

Downy Brome [5] = experiment: Pre-emergent herbicidal activity (Table II); conditions: 2-3 weeks
Procedure: as §1, §2, §3, §4

Cocklebur [6] = experiment: Pre-emergent herbicidal activity (Table II); conditions: 2-3 weeks
Procedure: as §1, §2, §3, §4

Lambsquarters [7] = experiment: Pre-emergent herbicidal activity (Table II); conditions: 2-3 weeks
Procedure: as §1, §2, §3, §4

Quackgrass = experiment: Pre-emergent herbicidal activity (Table II); conditions: 2-3 weeks
Procedure: as §1, §2, §3, §4

Yellow Nutsedge = experiment: Pre-emergent herbicidal activity (Table II); conditions: 2-3 weeks
Procedure: as §1, §2, §3, §4

Hemp Sesbania = experiment: Pre-emergent herbicidal activity (Table III)
Procedure: as §1, §2, §3
(§5) The compounds were further tested by utilizing the above procedure on the following plant species: […]

Velvetleaf [8] = experiment: Pre-emergent herbicidal activity (Table III)
Procedure: as §1, §2, §3, §5

Soybean = experiment: Pre-emergent herbicidal activity (Table III)
Procedure: as §1, §2, §3, §5

Morningglory [9] = experiment: Pre-emergent herbicidal activity (Table III)
Procedure: as §1, §2, §3, §5

Wheat = experiment: Pre-emergent herbicidal activity (Table III)
Procedure: as §1, §2, §3, §5

Crabgrass = experiment: Pre-emergent herbicidal activity (Table III)
Procedure: as §1, §2, §3, §5

Panicum = experiment: Pre-emergent herbicidal activity (Table III)
Procedure: as §1, §2, §3, §5

Sugarbeet = experiment: Pre-emergent herbicidal activity (Table III)
Procedure: as §1, §2, §3, §5

Rice = experiment: Pre-emergent herbicidal activity (Table III)
Procedure: as §1, §2, §3, §5

Smartweed [10] = experiment: Pre-emergent herbicidal activity (Table III)
Procedure: as §1, §2, §3, §5

Barnyardgrass [11] = experiment: Pre-emergent herbicidal activity (Table III)
Procedure: as §1, §2, §3, §5

Downy Brome [12] = experiment: Pre-emergent herbicidal activity (Table III)
Procedure: as §1, §2, §3, §5

Cocklebur [13] = experiment: Pre-emergent herbicidal activity (Table III)
Procedure: as §1, §2, §3, §5

Lambsquarters [14] = experiment: Pre-emergent herbicidal activity (Table III)
Procedure: as §1, §2, §3, §5

Wild Buckwheat = experiment: Pre-emergent herbicidal activity (Table III)
Procedure: as §1, §2, §3, §5

Sorghum = experiment: Pre-emergent herbicidal activity (Table III)
Procedure: as §1, §2, §3, §5

Measured: Herbicidal rating
Further: ranges in brackets are in %.

CC1=C(N(Cn2c(=O)sc3ccc(Cl)cc32)C(=O)CCl)C(C)CCC1 (stereo not shown) [Example 6, N--[(5-chloro-2-oxo-3(2H)--benzothiazolyl)methyl]-N--(2,6-dimethyl-1-cyclohexen-1-yl)-2-chloroacetamide]
3 (75-100): Barnyardgrass [4]; 11.2 kg/ha | Lambsquarters [7]; 11.2 kg/ha | Hemp Sesbania; 1.12 kg/ha | Hemp Sesbania; 5.6 kg/ha | Crabgrass; 5.6 kg/ha | Lambsquarters [14]; 1.12 kg/ha
1 (25-49): Barnyardgrass [4]; 5.6 kg/ha | Canada Thistle; 11.2 kg/ha | Quackgrass; 11.2 kg/ha | Sugarbeet; 1.12 kg/ha | Sugarbeet; 5.6 kg/ha | Rice; 1.12 kg/ha | Smartweed [10]; 5.6 kg/ha | Barnyardgrass [11]; 5.6 kg/ha | Lambsquarters [14]; 5.6 kg/ha
0 (0-24): Velvetleaf [1]; 5.6 kg/ha | Velvetleaf [1]; 11.2 kg/ha | Johnsongrass; 5.6 kg/ha | Johnsongrass; 11.2 kg/ha | Morningglory [2]; 5.6 kg/ha | Morningglory [2]; 11.2 kg/ha | Smartweed [3]; 5.6 kg/ha | Smartweed [3]; 11.2 kg/ha | Canada Thistle; 5.6 kg/ha | Downy Brome [5]; 5.6 kg/ha | Downy Brome [5]; 11.2 kg/ha | Cocklebur [6]; 5.6 kg/ha | Cocklebur [6]; 11.2 kg/ha | Lambsquarters [7]; 5.6 kg/ha | Quackgrass; 5.6 kg/ha | Yellow Nutsedge; 5.6 kg/ha | Yellow Nutsedge; 11.2 kg/ha | Velvetleaf [8]; 1.12 kg/ha | Velvetleaf [8]; 5.6 kg/ha | Soybean; 1.12 kg/ha | Soybean; 5.6 kg/ha | Morningglory [9]; 1.12 kg/ha | Morningglory [9]; 5.6 kg/ha | Wheat; 1.12 kg/ha | Wheat; 5.6 kg/ha | Panicum; 1.12 kg/ha | Panicum; 5.6 kg/ha | Rice; 5.6 kg/ha | Barnyardgrass [11]; 1.12 kg/ha | Downy Brome [12]; 1.12 kg/ha | Downy Brome [12]; 5.6 kg/ha | Cocklebur [13]; 1.12 kg/ha | Cocklebur [13]; 5.6 kg/ha | Wild Buckwheat; 1.12 kg/ha | Wild Buckwheat; 5.6 kg/ha | Sorghum; 1.12 kg/ha | Sorghum; 5.6 kg/ha
2 (50-74): Crabgrass; 1.12 kg/ha | Smartweed [10]; 1.12 kg/ha

CC1=C(N(Cn2c(=O)sc3ccccc32)C(=O)CCl)C(C)CCC1 (stereo not shown) [Example 9, N--[(2-oxo-3(2H)--benzothiazolyl)methyl]-N--(2,6-dimethyl-1-cyclohexen-1-yl)-2-chloroamide]
1 (25-49): Lambsquarters [7]; 5.6 kg/ha | Lambsquarters [7]; 11.2 kg/ha | Quackgrass; 11.2 kg/ha | Crabgrass; 0.26 kg/ha | Sugarbeet; 5.6 kg/ha | Smartweed [10]; 5.6 kg/ha | Lambsquarters [14]; 5.6 kg/ha
0 (0-24): Velvetleaf [1]; 5.6 kg/ha | Velvetleaf [1]; 11.2 kg/ha | Johnsongrass; 5.6 kg/ha | Johnsongrass; 11.2 kg/ha | Morningglory [2]; 5.6 kg/ha | Morningglory [2]; 11.2 kg/ha | Smartweed [3]; 5.6 kg/ha | Canada Thistle; 5.6 kg/ha | Canada Thistle; 11.2 kg/ha | Downy Brome [5]; 5.6 kg/ha | Cocklebur [6]; 5.6 kg/ha | Cocklebur [6]; 11.2 kg/ha | Quackgrass; 5.6 kg/ha | Yellow Nutsedge; 5.6 kg/ha | Yellow Nutsedge; 11.2 kg/ha | Hemp Sesbania; 1.12 kg/ha | Hemp Sesbania; 5.6 kg/ha | Velvetleaf [8]; 0.26 kg/ha | Velvetleaf [8]; 1.12 kg/ha | Velvetleaf [8]; 5.6 kg/ha | Soybean; 0.26 kg/ha | Soybean; 1.12 kg/ha | Soybean; 5.6 kg/ha | Morningglory [9]; 1.12 kg/ha | Morningglory [9]; 5.6 kg/ha | Wheat; 0.26 kg/ha | Wheat; 1.12 kg/ha | Panicum; 0.26 kg/ha | Panicum; 1.12 kg/ha | Sugarbeet; 0.26 kg/ha | Sugarbeet; 1.12 kg/ha | Rice; 0.26 kg/ha | Smartweed [10]; 0.26 kg/ha | Smartweed [10]; 1.12 kg/ha | Downy Brome [12]; 0.26 kg/ha | Downy Brome [12]; 1.12 kg/ha | Cocklebur [13]; 0.26 kg/ha | Cocklebur [13]; 1.12 kg/ha | Lambsquarters [14]; 0.26 kg/ha | Lambsquarters [14]; 1.12 kg/ha | Wild Buckwheat; 0.26 kg/ha | Wild Buckwheat; 1.12 kg/ha | Wild Buckwheat; 5.6 kg/ha | Sorghum; 0.26 kg/ha | Sorghum; 1.12 kg/ha
3 (75-100): Smartweed [3]; 11.2 kg/ha | Barnyardgrass [4]; 5.6 kg/ha | Barnyardgrass [4]; 11.2 kg/ha | Crabgrass; 5.6 kg/ha | Panicum; 5.6 kg/ha | Barnyardgrass [11]; 1.12 kg/ha | Barnyardgrass [11]; 5.6 kg/ha
2 (50-74): Downy Brome [5]; 11.2 kg/ha | Wheat; 5.6 kg/ha | Crabgrass; 1.12 kg/ha | Rice; 1.12 kg/ha | Rice; 5.6 kg/ha | Barnyardgrass [11]; 0.26 kg/ha | Downy Brome [12]; 5.6 kg/ha | Sorghum; 5.6 kg/ha
